The source made the active and inactive calls. The calls are words filed in the database; no cut-off is given here.
How the values were obtained:
A549 = test: Antitumor activity against human A549 cells xenografted in nude BALB/c mouse assessed as tumor growth inhibition at 3.51 umol/kg, ip administered on day 1, 4 and 7 post-inoculation measured up to 14 days; assay type: functional, organism-based
[1] = Octanol-water partition coefficient, log P of the compound; assay type: physicochemical

Row | SMILES | growth inhibition (GI) (A549) | logP [1]
1 | CC(=O)O[C@H]1C(=O)[C@@]2(C)[C@H]([C@H](OC(=O)c3ccccc3)[C@]3(O)C[C@H](OC(=O)[C@H](O)[C@@H](NC(=O)c4ccccc4)c4ccccc4)C(C)=C1C3(C)C)[C@]1(OC(C)=O)CO[C@@H]1C[C@@H]2O [PACLITAXEL] | Active | 2.25
2 | CC(=O)O[C@H]1C(=O)[C@]2(C)[C@@H](OC(=O)CCC(=O)OC(COC(CO)CO)COC(CO)CO)C[C@H]3OC[C@@]3(OC(C)=O)[C@H]2[C@H](OC(=O)c2ccccc2)[C@]2(O)C[C@H](OC(=O)[C@H](O)[C@@H](NC(=O)c3ccccc3)c3ccccc3)C(C)=C1C2(C)C |  | 1.99
3 | CC(=O)O[C@H]1C(=O)[C@@]2(C)[C@H]([C@H](OC(=O)c3ccccc3)[C@]3(O)C[C@H](OC(=O)[C@H](O)[C@@H](NC(=O)CCC(=O)OC(COC(CO)CO)COC(CO)CO)c4ccccc4)C(C)=C1C3(C)C)[C@]1(OC(C)=O)CO[C@@H]1C[C@@H]2O | Active | 1.46
4 | CC(=O)O[C@H]1C(=O)[C@@]2(C)[C@H]([C@H](OC(=O)c3ccccc3)[C@]3(O)C[C@H](OC(=O)[C@H](OC(=O)CCC(=O)OC(COC(CO)CO)COC(CO)CO)[C@@H](NC(=O)c4ccccc4)c4ccccc4)C(C)=C1C3(C)C)[C@]1(OC(C)=O)CO[C@@H]1C[C@@H]2O |  | 2.26
